# Assay results from PubChem BioAssay (NCI).
#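 Five compound concentrations were applied to cells in 96-well plates for 48 hours; endpoints were derived by simple linear interpolation of the resulting dose-response curve. The concentration for full growth arrest is given as TGI.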
# Key:
# Experiment in all cases: NCI tumour cell line growth inhibition, 48 h
# MDA-N = system: MDA-N
# UO-31 renal = system: UO-31 renal
# M14 melanoma = system: M14 melanoma
# A549 NSCLC = system: A549 NSCLC
# T-47D breast = system: T-47D breast
# SF-539 CNS = system: SF-539 CNS
# HS 578T breast = system: HS 578T breast
# HOP-92 NSCLC = system: HOP-92 NSCLC
# NCI/ADR-RES ovarian = system: NCI/ADR-RES ovarian
# NCI-H23 lung = system: NCI-H23 lung
Compound,TGI (MDA-N) [µM],TGI (UO-31 renal) [µM],TGI (M14 melanoma) [µM],TGI (A549 NSCLC) [µM],TGI (T-47D breast) [µM],TGI (SF-539 CNS) [µM],TGI (HS 578T breast) [µM],TGI (HOP-92 NSCLC) [µM],TGI (NCI/ADR-RES ovarian) [µM],TGI (NCI-H23 lung) [µM]
O=C(OCc1ccccc1)N1CCNCCNCCN(C(=O)OCc2ccccc2)CCNCC1,31.3,27.8,30.4,> 100,41,32.8,44,46.7,> 100,
CCOC(=O)c1cc(Br)c(-c2onc(C)c2Br)[nH]1,> 100,> 100,> 100,> 100,> 100,> 100,> 100,> 100,> 100,> 100
Clc1cc(Cl)ncn1,> 100,> 100,> 100,> 100,> 100,> 100,> 100,> 100,> 100,> 100
CC(C)Oc1cccc(N2C(Nc3ccccc3)=Nc3ccncc3S2(=O)=O)c1,> 100,> 100,> 100,> 100,90.1,44.9,> 100,49,53.3,> 100
O=C(Nc1nn[nH]n1)c1nc(-c2ccccc2)cc(=O)[nH]1,> 100,> 100,> 100,> 100,> 100,> 100,> 100,> 100,> 100,> 100
Oc1ccc(Oc2cc3c(cc2Oc2ccc(O)cc2)-c2nc-3nc3[nH]c(nc4nc(nc5[nH]c(n2)c2cc(Oc6ccc(O)cc6)c(Oc6ccc(O)cc6)cc52)-c2cc(Oc5ccc(O)cc5)c(Oc5ccc(O)cc5)cc2-4)c2cc(Oc4ccc(O)cc4)c(Oc4ccc(O)cc4)cc32)cc1,> 100,> 100,30.3,> 100,> 100,> 100,> 100,> 100,> 100,> 100
CCOC(=O)CCC(C(=O)OCC)n1nnc2cc(Nc3c(C)[n+]([O-])c4cc(F)c(OCC)cc4[n+]3[O-])ccc21 (configuration not stated),> 100,> 100,> 100,> 100,> 100,> 100,> 100,88.8,> 100,> 100
NC(N)=NC1C(O)C(O)C(O)C(N=C(N)N)C1O (configuration not stated),> 100,> 100,> 100,> 100,> 100,> 100,> 100,> 100,> 100,> 100
CCN(CC)C(=O)CCN1CC1,> 10,> 10,> 10,> 10,> 10,> 10,> 10,> 10,> 10,> 10
CC(C)=CCC[C@@H](C)C1=C(O)C(Nc2ccccc2I)=C(C)C(=O)C1=O,> 75,35.7,> 58.9,> 50.6,47.5,30,47.4,50.2,> 17.6,38.9
Cc1cc(S(=O)(=O)/N=C(/NN)Nc2ccc(Cl)cc2)c(S)cc1Cl,22.5,18,34.6,23.8,14.8,42.6,11.3,67.9,23.4,
NCCSCCC(=O)O,> 100,> 100,> 100,> 100,> 84.2,> 100,> 100,> 100,> 100,> 62.7
O=c1c2nc(-c3ccccc3)oc2n(-c2ccccc2)c(=O)n1-c1ccccc1,> 46.4,> 31.6,> 46.4,> 46.4,> 46.4,35.8,39.5,24.4,> 31.6,> 46.4
O=C(c1ccc(Cl)cc1)N1CCN=C1c1cc2ccccc2c2ccccc12,31.9,31.5,> 100,31,54.4,29.1,35.9,26.3,33.3,32.7
O=C1/C(=C/c2cccc3ccccc23)CCc2ccc([N+](=O)[O-])cc21,23.4,> 100,> 100,> 100,> 100,73.5,47.7,74.4,> 100,> 100
Cc1nc(-c2cc3ccccc3oc2=O)cs1,> 100,> 100,> 100,> 100,> 100,> 100,65.8,53.9,> 100,
